Patent US5106871A, “Anti-ulcer agent comprising chalcone derivative as effective ingredient and novel chalcone derivative” (Tsumura & Co., priority 1986, dated 1992)
Like-named read-outs stand apart in the source and are kept apart here.

Key:
Assay type in all cases: in vivo, male rats of the Wister line
gastric mucous membrane [1] = assay: 100% ethanol-induced gastric mucous membrane damage in rats (Experimental Example 1)
Procedure: After 1 hour from the administration of 100% ethanol, the abdominal operation was carried out, and the length of the damaged region on the gastric mucous membrane was measured as the mucous membrane damage coefficient and compared with the value obtained in the control group. Note, a 0.5% solution of CMC not containing a compound of formula I was intraabdominally or orally administered in the control group.

gastric mucous membrane [2] = assay: 0.6N hydrochloric acid-induced gastric mucous membrane damage in rats (Experimental Example 2); settings: for Inhibition Ratio: vs control
Procedure: A suspension of a compound of formula I in a […] of CMC (carboxymethyl cellulose) was intraabdominally administered in male rats of the Wister line (each group consisting of 10 rats) having a body weight of 180 to 200 g, which had been made to fast for 24 hours, and after 30 minutes, 1 ml of 0.6N hydrochloric acid was orally administered. After 1 hour from the administration of 0.6N hydrochloric acid, the abdominal operation was carried out, and the length of the damage on the gastric mucous membrane was measured as the mucous membrane damage coefficient and compared with the value obtained in the control group in the control group. Note, a 0.5% solution of CMC was intraabdominally administered. Data of the inhibition ratio calculated according to the following formula is shown in Tables 5 through 7: [formula] wherein A stands for the value obtained in the control group and B stands for the value obtained in the group in which the compound of formula I had been administered.

gastric mucous membrane [3] = assay: 150 mM hydrochloric acid/60% ethanol-induced gastric mucous membrane damage in rats (Experimental Example 3); settings: 150 mM HCl/60% ethanol; for Inhibition Ratio: vs control
Procedure: A suspension of a compound of formula I in a 0.5 % solution of CMC (carboxymethyl cellulose) was intraabdominally or orally administered in male rats of the Wister line (each group consisting of 10 rats) having a body weight of 180 to 200 g, which had been made to fast for 24 hours, and after 30 minutes, 1 ml of a liquid mixture of 150 mM hydrochloric acid and 60% ethanol was orally administered. After 1 hour from the administration of the liquid mixture of 150 mM hydrochloric acid and 60% ethanol, the abdominal operation was carried out, and the length of the damage on the gastric mucous membrane was measured as the mucous membrane damage coefficient and compared with the value obtained in the control group. Note, a 0.5% solution of CMC not containing a compound of formula I was intra-abdominally or orally administered in the control group. Data of the inhibition ratio calculated according to the following formula is shown in Tables 8 through 10: [formula] wherein A stands for the value obtained in the control group and B stands for the value obtained in the group in which the compound of formula I had been administered.

[4] = Rattus norvegicus, po, 1 h, Table 2, 100 mg/kg p.o., vs control, read-out: Inhibition Ratio
[5] = Table 2, 100 mg/kg p.o., control 87.7
[6] = Rattus norvegicus, ip, 1 h, Table 3, 100 mg/kg i.p., vs control, read-out: Inhibition Ratio
[7] = Table 3, 100 mg/kg i.p., control 72.63
[8] = Table 6, 100 mg/kg i.p., control 106.3
[9] = Table 9, 30 mg/kg p.o., control 84.3
[10] = Table 10, 30 mg/kg i.p., control 110.7
[11] = Rattus norvegicus, ip, 1 h, Table 4, 100 mg/kg i.p., vs control, read-out: Inhibition Ratio
[12] = Table 4, 100 mg/kg i.p., control 72.3
[13] = Table 8, 100 mg/kg p.o., control 119.0

COc1ccc(CCC(=O)c2ccc(OC)c(CCC(C)C)c2OCC(=O)O)cc1 [Specific Example 3, 1-(carboxymethoxy-4-methoxy-3-isopentylphenyl)-3-(4-methoxyphenyl)-1-propanone]
inhibition in vivo at 100 mg/kg (gastric mucous membrane [1]; Rattus norvegicus, ip, 1 h, Table 1, 100 mg/kg i.p., vs control, read-out: Inhibition Ratio): 63.4%
inhibition in vivo at 100 mg/kg (gastric mucous membrane [1]; [4]): 93.2%
Mucous Membrane Damage Coefficient (gastric mucous membrane [1]; Table 1, 100 mg/kg i.p., control 102.6): 37.6 mm
Mucous Membrane Damage Coefficient (gastric mucous membrane [1]; [5]): 6.0 mm
Mucous Membrane Damage Coefficient (gastric mucous membrane [2]; Table 5, 100 mg/kg i.p., control 65.8): 61.8 mm
Inhibition Ratio (gastric mucous membrane [2]; Table 5, 100 mg/kg i.p.): 68.1%

COc1cc(CCC(=O)c2c(OC)cc(OC)c(CCC(C)C)c2OCC(=O)O)ccc1O [Specific Example 5, 1-(2-carboxymethoxy-4,6-dimethoxy-3-isopentylphenyl)-3-(4-hydroxy-3-methoxyphenyl)-1-propanone]
inhibition in vivo at 100 mg/kg (gastric mucous membrane [1]; [6]): 27.9%
Mucous Membrane Damage Coefficient (gastric mucous membrane [1]; [7]): 52.38 mm

COc1ccc(CCC(=O)c2c(OC)cc(OC)c(CCC(C)C)c2OCC(=O)O)cc1O [Specific Example 6, 1-(2-carboxymethoxy-4,6-dimethoxy-3-isopentylphenyl)-3-(3-hydroxy-4-methoxyphenyl)-1-propanone]
inhibition in vivo at 100 mg/kg (gastric mucous membrane [1]; [6]): 32.4%
Mucous Membrane Damage Coefficient (gastric mucous membrane [1]; [7]): 49.13 mm

COc1cc(CCC(=O)c2c(OC)cc(OC)c(CCC(C)C)c2OCC(=O)O)cc(OC)c1O [Specific Example 7, 1-(2-carboxymethoxy-4,6-dimethoxy-3-isopentylphenyl)-3-(4-hydroxy-3,5-dimethoxyphenyl)-1-propanone]
inhibition in vivo at 100 mg/kg (gastric mucous membrane [1]; [6]): 32.5%
Mucous Membrane Damage Coefficient (gastric mucous membrane [1]; [7]): 49.00 mm

COc1ccc(/C=C/C(=O)c2ccc(OC)c(CC=C(C)C)c2OCC(=O)O)cc1 [Specific Example 8, 2'-carboxymethoxy-4,4'-dimethoxy-3'-(3-methyl-2-butenyl)chalcone]
inhibition in vivo at 100 mg/kg (gastric mucous membrane [1]; [6]): 78.5%
Mucous Membrane Damage Coefficient (gastric mucous membrane [1]; [7]): 15.63 mm
Mucous Membrane Damage Coefficient (gastric mucous membrane [2]; [8]): 62.4 mm
Inhibition Ratio (gastric mucous membrane [2]; Table 6, 100 mg/kg i.p.): 41.3%

COc1ccc(/C=C/C(=O)c2c(OC)cc(OC)c(CCC(C)C)c2OCC(=O)O)cc1 [Specific Example 9, 2'-carboxymethoxy-4,4',6'-trimethoxy-3'-isopentylchalcone]
inhibition in vivo at 100 mg/kg (gastric mucous membrane [1]; [6]): 93.1%
Mucous Membrane Damage Coefficient (gastric mucous membrane [1]; [7]): 5.00 mm
Mucous Membrane Damage Coefficient (gastric mucous membrane [2]; [8]): 39.6 mm
Inhibition Ratio (gastric mucous membrane [2]; Table 6, 100 mg/kg i.p.): 62.3%

COc1ccc(CCC(=O)c2c(OC)cc(OC)cc2OCC(=O)O)cc1 [Specific Example 11, 1-(2-carboxymethoxy-4,6-dimethoxyphenyl)-3-(4-methoxyphenyl)-1-propanone]
inhibition in vivo at 100 mg/kg (gastric mucous membrane [1]; [6]): 92.8%
Mucous Membrane Damage Coefficient (gastric mucous membrane [1]; [7]): 5.25 mm
Mucous Membrane Damage Coefficient (gastric mucous membrane [2]; [8]): 36.6 mm
Inhibition Ratio (gastric mucous membrane [2]; Table 6, 100 mg/kg i.p.): 65.6%

COc1ccc(CCC(=O)c2c(OC)cc(OC)c(CC=C(C)C)c2OCC(=O)O)cc1 [Specific Example 12, 1-[2-carboxymethoxy-4,6-dimethoxy-3-(3-methyl-2-butenyl)phenyl]-3-(4-methoxyphenyl) -propanone]
inhibition in vivo at 100 mg/kg (gastric mucous membrane [1]; [6]): 43.2%
Mucous Membrane Damage Coefficient (gastric mucous membrane [1]; [7]): 41.25 mm
Mucous Membrane Damage Coefficient (gastric mucous membrane [2]; [8]): 76.6 mm
Inhibition Ratio (gastric mucous membrane [2]; Table 6, 100 mg/kg i.p.): 27.8%

O=C(/C=C/c1ccc(O)cc1)c1ccc(O)cc1O [Specific Example 15, 2',4,4'-trihydroxychalcone]
Mucous Membrane Damage Coefficient (gastric mucous membrane [3]; [9]): 30.0 mm
Inhibition Ratio (gastric mucous membrane [3]; Table 9, 30 mg/kg p.o.): 64.4%
Mucous Membrane Damage Coefficient (gastric mucous membrane [3]; [10]): 49.5 mm
Inhibition Ratio (gastric mucous membrane [3]; Table 10, 30 mg/kg i.p.): 55.3%

COc1ccc(/C=C/C(=O)c2ccc(OC)c(CC=C(C)C)c2O)cc1 [Specific Example 16, 2'-hydroxy-4,4'-dimethoxy-3'-(3-methyl-2-butenyl)chalcone]
inhibition in vivo at 100 mg/kg (gastric mucous membrane [1]; [11]): 36.4%
Mucous Membrane Damage Coefficient (gastric mucous membrane [1]; [12]): 46.0 mm

O=C(/C=C/c1ccc(O)c(O)c1)c1ccc(O)cc1O [Specific Example 19, 2',3,4,4'-tetrahydroxychalcone]
Mucous Membrane Damage Coefficient (gastric mucous membrane [3]; [9]): 10.5 mm
Inhibition Ratio (gastric mucous membrane [3]; Table 9, 30 mg/kg p.o.): 87.5%

O=C(CCc1ccc(O)cc1)c1ccc(O)cc1O [Specific Example 22, 1-(2,4-dihydroxyphenyl)-3-(4-hydroxyphenyl)-1-propanone]
Mucous Membrane Damage Coefficient (gastric mucous membrane [3]; [13]): 1.4 mm
Inhibition Ratio (gastric mucous membrane [3]; Table 8, 100 mg/kg p.o.): 98.8%
Mucous Membrane Damage Coefficient (gastric mucous membrane [3]; [9]): 57.2 mm
Inhibition Ratio (gastric mucous membrane [3]; Table 9, 30 mg/kg p.o.): 32.1%
Mucous Membrane Damage Coefficient (gastric mucous membrane [3]; [10]): 54.2 mm
Inhibition Ratio (gastric mucous membrane [3]; Table 10, 30 mg/kg i.p.): 51.0%

O=C(CCc1ccc(O)cc1)c1c(O)cc(O)cc1O [Specific Example 23, 1-(2,4,6-trihydroxyphenyl)-3-(4-hydroxyphenyl)-1-propanone]
inhibition in vivo at 100 mg/kg (gastric mucous membrane [1]; [11]): 36.7%
Mucous Membrane Damage Coefficient (gastric mucous membrane [1]; [12]): 45.8 mm
Mucous Membrane Damage Coefficient (gastric mucous membrane [3]; [13]): 67.9 mm
Inhibition Ratio (gastric mucous membrane [3]; Table 8, 100 mg/kg p.o.): 43.0%

CC(=O)Oc1c(CC=C(C)C)c(O)cc(O)c1C(=O)CCc1ccc(O)cc1 [Specific Example 24, 1-[2-acetoxy-4,6-hydroxy-3-(3-methyl-2-butenyl)phenyl]-3-(4-hydroxyphenyl)-1-propanone]
inhibition in vivo at 100 mg/kg (gastric mucous membrane [1]; [11]): 23%
Mucous Membrane Damage Coefficient (gastric mucous membrane [1]; [12]): 55.7 mm

O=C(CCc1ccc(O)c(O)c1)c1ccc(O)cc1O [Specific Example 27, 1-(2,4-dihydroxyphenyl)-3-(3,4-dihydroxyphenyl)-1-propanone]
Mucous Membrane Damage Coefficient (gastric mucous membrane [3]; [9]): 1.5 mm
Inhibition Ratio (gastric mucous membrane [3]; Table 9, 30 mg/kg p.o.): 98.2%
Mucous Membrane Damage Coefficient (gastric mucous membrane [3]; [10]): 60.0 mm
Inhibition Ratio (gastric mucous membrane [3]; Table 10, 30 mg/kg i.p.): 45.8%

O=C(CCc1ccc(O)c(O)c1)c1c(O)cc(O)cc1O [Specific Example 28, 1-(2,4,6-trihydroxyphenyl)-3-(3,4-dihydroxyphenyl)-1-propanone]
inhibition in vivo at 100 mg/kg (gastric mucous membrane [1]; [11]): 90%
Mucous Membrane Damage Coefficient (gastric mucous membrane [1]; [12]): 7.2 mm
Mucous Membrane Damage Coefficient (gastric mucous membrane [3]; [13]): 15.7 mm
Inhibition Ratio (gastric mucous membrane [3]; Table 8, 100 mg/kg p.o.): 86.8%

CC(C)CCc1c(O)cc(O)c(C(=O)CCc2ccc(O)cc2)c1OCC(=O)O [Specific Example 32, 1-(2-carboxymethoxy-4,6-dihydroxy-3-isopentylphenyl)-3-(4-hydroxyphenyl)-1-propanone]
inhibition in vivo at 100 mg/kg (gastric mucous membrane [1]; [11]): 61.3%
Mucous Membrane Damage Coefficient (gastric mucous membrane [1]; [12]): 28.0 mm

COc1ccc(CCC(=O)c2ccc(OC)c(CCC(C)C)c2O)cc1 [Specific Example 33, 1-(2-hydroxy-4-methoxy-3-isopentylphenyl)-3-(4-methoxyphenyl)-1-propanone]
inhibition in vivo at 100 mg/kg (gastric mucous membrane [1]; [11]): 40.1%
Mucous Membrane Damage Coefficient (gastric mucous membrane [1]; [12]): 3.3 mm

COc1ccc(CCC(=O)c2c(OC)cc(OC)c(CCC(C)C)c2OCC(=O)O)cc1 [Specific Example 35, 1-(2-carboxymethoxy-4,6-dimethoxy-3-isopentylphenyl)-3-(4-methoxyphenyl)-1-propanone]
inhibition in vivo at 35 mg/kg (gastric mucous membrane [1]; Rattus norvegicus, ip, 1 h, Table 1, 35 mg/kg i.p., vs control, read-out: Inhibition Ratio): 67.2%
inhibition in vivo at 100 mg/kg (gastric mucous membrane [1]; [4]): 81.2%
Mucous Membrane Damage Coefficient (gastric mucous membrane [1]; Table 1, 35 mg/kg i.p., control 102.6): 33.7 mm
Mucous Membrane Damage Coefficient (gastric mucous membrane [1]; [5]): 16.5 mm
Mucous Membrane Damage Coefficient (gastric mucous membrane [2]; Table 7, 100 mg/kg i.p., control 133.8): 65.8 mm
Inhibition Ratio (gastric mucous membrane [2]; Table 7, 100 mg/kg i.p.): 50.8%

CC(C)CCc1cc(CCC(=O)c2c(O)cc(O)c(CCC(C)C)c2O)ccc1O [Specific Example 37, 1-(2,4,6-trihydroxy-3-isopentylphenyl)-3-(4-hydroxy-3-isopentylphenyl)-1-propanone]
inhibition in vivo at 100 mg/kg (gastric mucous membrane [1]; [11]): 31.1%
Mucous Membrane Damage Coefficient (gastric mucous membrane [1]; [12]): 49.8 mm
